Results reported in patent US20090042856A1, “PYRIDAZINONE DERIVATIVES USED FOR THE TREATMENT OF PAIN” (Astellas Pharma Inc, priority 2005, published 2009).
Counter-ions that a name gives are not always drawn.

System: TNF-α production in THP-1 cells
Assay: Inhibition of TNF-α production in THP-1 cells
Format: cell-based
Conditions: Homo sapiens; TNF-α levels from LPS (10 μg/mL) stimulated THP-1 cells, 100 nM test compound, 20 hours, vs 0.1% DMSO control
Experimental: THP-1 cells, a human monocytic cell line, were maintained in RPMI 1640 (Sigma R8758) supplemented with penicillin (50 U/ml), streptomycin (50 μg/ml) and 10% fetal bovine serum (Moregate BioTech.) at 37° C., 5% CO2 in a humidified incubator. Initial stock solutions of test compounds were made in DMSO. All cells, reagents and test compounds were diluted into culture media. THP-1 cells (1×10^5 cells/well final) and lipopolysaccharide (LPS; 10 μg/mL final; Sigma L-4005, from E. coli serotype 055:B5) were added to 96 well polypropylene culture plates (Sumilon, MS-8196F5; sterile) containing test compound or 0.1% DMSO vehicle. The cell mixture was incubated for 20 hours in a humidified incubator at 37° C., 5% CO2. The culture supernatants were harvested and TNF-α levels from LPS stimulated cells in the presence of 100 nM test compound was calculated compared with control cells stimulated in the presence of 0.1% DMSO.

Going from CC(=O)N1CCC2(CC1)CNc1c(-c3ccc(=O)n(-c4ccccc4C)n3)c(-c3ccc(F)cc3)nn1C2 [Example 107, 6-[1-acetyl-2′-(4-fluorophenyl)-4′,5′-dihydrospiro[piperidine-4,6′-pyrazolo[1,5-a]pyrimidin]-3′-yl]-2-(2-methylphenyl)pyridazin-3(2H)-one] to Cc1ccccc1-n1nc(-c2c(-c3ccc(F)cc3)nn3c2NCC(F)(F)C3)ccc1=O [Example 85, 6-[6,6-Difluoro-2-(4-fluorophenyl)-4,5,6,7-tetrahydropyrazolo[1,5-a]pyrimidin-3-yl]-2-(2-methylphenyl)pyridazin-3(2H)-one], the inhibition at 0.1 µM falls from 90% to 88%.

Compared with Cc1ccccc1-n1nc(-c2c(-c3ccc(F)cc3)nn3c2NCC(CN2CCN(C)CC2)C3)ccc1=O (stereo not shown) [Example 47, 6-(2-(4-Fluorophenyl)-6-[(4-methylpiperazin-1-yl)methyl]-4,5,6,7-tetrahydropyrazolo[1,5-a]pyrimidin-3-yl)-2-(2-methylphenyl)pyridazin-3(2H)-one dihydrochloride], Cc1ccccc1-n1nc(-c2c(-c3ccc(F)cc3)nn3c2NCC(C(=O)NC2CC2)C3)ccc1=O (stereo not shown) [Example 57, N-cyclopropyl-2-(4-fluorophenyl)-3-[1-(2-methylphenyl)-6-oxo-1,6-dihydropyridazin-3-yl]-4,5,6,7-tetrahydropyrazolo[1,5-a]pyrimidine-6-carboxamide] is higher in inhibition at 0.1 µM: 95% for the first, 97% for the second.

Compared with Cc1ccccc1-n1nc(-c2c(-c3ccc(F)cc3)nn3c2OCC3)ccc1=O [Example 125, 6-[6-(4-fluorophenyl)-2,3-dihydropyrazolo[5,1-b][1,3]oxazol-7-yl]-2-(2-methylphenyl)pyridazin-3(2H)-one], CCN1CCn2nc(-c3ccc(F)cc3)c(-c3ccc(=O)n(-c4ccccc4C)n3)c21 [Example 6, 6-[1-Ethyl-6-(4-fluorophenyl)-2,3-dihydro-1H-imidazo[1,2-b]pyrazol-7-yl]-2-(2-methylphenyl)-3(2H)-pyridazinone] is lower in inhibition at 0.1 µM: 83% for the first, 80% for the second.

Going from Cc1ccccc1-n1nc(-c2c(-c3ccc(F)cc3F)nn3c2NCC(CO)C3)ccc1=O (stereo not shown) [Example 37, 6-[2-(2,4-Difluorophenyl)-6-(hydroxymethyl)-4,5,6,7-tetrahydropyrazolo[1,5-a]pyrimidin-3-yl]-2-(2-methylphenyl)pyridazin-3(2H)-one] to Cc1ccccc1-n1nc(-c2c(-c3ccc(F)cc3F)nn3c2NCC(CN(C)C)C3)ccc1=O (stereo not shown) [Example 1, 6-{2-(2,4-difluorophenyl)-6-[(dimethylamino)methyl]-4,5,6,7-tetrahydropyrazolo[1,5-a]pyrimidin-3-yl}-2-(2-methylphenyl)-3(2H)-pyridazinone], the inhibition at 0.1 µM falls from 94% to 88%.

Going from Cc1ccccc1-n1nc(-c2c(-c3ccc(F)cc3)nn3c2NCC(CO)(CO)C3)ccc1=O [Example 35, 6-[2-(4-Fluorophenyl)-6,6-bis(hydroxymethyl)-4,5,6,7-tetrahydropyrazolo[1,5-a]pyrimidin-3-yl]-2-(2-methylphenyl)pyridazin-3(2H)-one] to Cc1ccccc1-n1nc(-c2c(-c3ccc(F)cc3)nn3c2N[C@H](CO)CC3)ccc1=O [Example 123, 6-[(5S)-2-(4-fluorophenyl)-5-(hydroxymethyl)-4,5,6,7-tetrahydropyrazolo[1,5-a]pyrimidin-3-yl]-2-(2-methylphenyl)pyridazin-3(2H)-one], the inhibition at 0.1 µM rises from 90% to 94%.

Compared with Cc1ccccc1-n1nc(-c2c(-c3ccc(F)cc3F)nn3c2NCC(CNC(C)(C)C)C3)ccc1=O (stereo not shown) [Example 98, 6-{6-[(tert-Butylamino)methyl]-2-(2,4-difluorophenyl)-4,5,6,7-tetrahydropyrazolo[1,5-a]pyrimidin-3-yl}-2-(2-methylphenyl)pyridazin-3(2H)-one], Cc1ccccc1N1N=C(c2c(-c3ccc(F)cc3F)nn3c2NCC(CN(C)C)C3)CCC1=O (stereo not shown) [Example 55, 6-{2-(2,4-difluorophenyl)-6-[(dimethylamino)methyl]-4,5,6,7-tetrahydropyrazolo[1,5-a]pyrimidin-3-yl}-2-(2-methylphenyl)-4,5-dihydropyridazin-3(2H)-one] is higher in inhibition at 0.1 µM: 86% for the first, 98% for the second.

First: Cc1ccccc1-n1nc(-c2c(-c3ccc(F)cc3)nn3c2NC(CO)CC3)ccc1=O (stereo in doubt) [Example 124, 6-[(5S)-2-(4-Fluorophenyl)-5-(hydroxymethyl)-4,5,6,7-tetrahydropyrazolo[1,5-a]pyrimidin-3-yl]-2-(2-methylphenyl)pyridazin-3(2H)-one]
Second: Cc1ccccc1-n1nc(-c2c(-c3ccccc3)nn3c2CN(C(C)C)CC3)ccc1=O [Example 130, 6-(5-isopropyl-2-phenyl-4,5,6,7-tetrahydropyrazolo[1,5-a]pyrazin-3-yl)-2-(2-methylphenyl)pyridazin-3(2H)-one]
The inhibition at 0.1 µM of the first is higher: 94% for the first, 70% for the second.

Cc1ccccc1-n1nc(-c2c(-c3ccc(F)cc3F)nn3cc(CN(C)C)cnc23)ccc1=O [Example 2, 6-{2-(2,4-Difluorophenyl)-6-[(dimethylamino)methyl]pyrazolo[1,5-a]pyrimidin-3-yl}-2-(2-methylphenyl)-3(2H)-pyridazinone] showed an inhibition at 0.1 µM of 98%.

System: adjuvant-induced arthritis rats
Assay: Inhibition of hind paw swelling in adjuvant-induced arthritis rats
Format: in vivo, Lewis rats
Conditions: Rattus norvegicus, po, 600 h, dose 0.3 mg/kg orally once a day from days 15 to 24, left hind paw volume on day 25, read-out: % inhibition of vehicle-treated rats
Experimental: Arthritis was induced by injection of 0.5 mg of Mycobacterium tuberculosis (Difco Laboratories, Detroit, Mich.) in 50 μL of liquid paraffin into the right hind footpad of female Lewis rats aged 7 weeks (day 0). Normal untreated rats were used as negative controls. Animals were randomized and grouped (n≧5) for drug treatment based on an increase of left hind paw volume and body weight on day 15. Test compounds were suspended in vehicle (0.5% methylcellulose) and orally administered once a day from days 15 to 24. The volume of the left hind paw was measured on day 25 by a water displacement method using a plethymometer for rats (MK-550; Muromachi Kikai Co., Ltd., Tokyo, Japan).

Compound Cc1ccccc1-n1nc(-c2c(-c3ccc(F)cc3F)nn3c2NCC(CN(C)C)C3)ccc1=O (stereo not shown) [Example 1, 6-{2-(2,4-difluorophenyl)-6-[(dimethylamino)methyl]-4,5,6,7-tetrahydropyrazolo[1,5-a]pyrimidin-3-yl}-2-(2-methylphenyl)-3(2H)-pyridazinone] has an inhibition in vivo at 0.3 mg/kg of 51.2%.

Same assay, conditions: Rattus norvegicus, po, 600 h, dose 0.5 mg/kg orally once a day from days 15 to 24, left hind paw volume on day 25, read-out: % inhibition of vehicle-treated rats

In the case of Cc1ccccc1-n1nc(-c2c(-c3ccc(F)cc3)nn3c2NC[C@@H](O)C3)ccc1=O [Example 100, 6-[(6R)-2-(4-Fluorophenyl)-6-hydroxy-4,5,6,7-tetrahydropyrazolo[1,5-a]pyrimidin-3-yl]-2-(2-methylphenyl)pyridazin-3(2H)-one], the inhibition in vivo at 0.5 mg/kg is reported as 40.2%.

Same assay, conditions: Rattus norvegicus, po, 600 h, dose 1 mg/kg orally once a day from days 15 to 24, left hind paw volume on day 25, read-out: % inhibition of vehicle-treated rats

Going from Cc1ccccc1-n1nc(-c2c(-c3ccc(F)cc3)nn3c2NCC(O)C3)ccc1=O (stereo not shown) [Example 18, 6-[2-(4-Fluorophenyl)-6-hydroxy-4,5,6,7-tetrahydropyrazolo[1,5-a]pyrimidin-3-yl]-2-(2-methylphenyl)-3(2H)-pyridazinone] to Cc1ccccc1-n1nc(-c2c(-c3ccc(F)cc3)nn3c2NCC(CO)C3)ccc1=O (stereo not shown) [Example 3, 6-[2-(4-Fluorophenyl)-6-(hydroxymethyl)-4,5,6,7-tetrahydropyrazolo[1,5-a]pyrimidin-3-yl]-2-(2-methylphenyl)-3(2H)-pyridazinone], the inhibition in vivo at 1 mg/kg rises from 46.1% to 56.4%.

Compared with Cc1ccccc1-n1nc(-c2c(-c3ccc(F)cc3F)nn3c2NCC(CO)C3)ccc1=O (stereo not shown) [Example 37, 6-[2-(2,4-Difluorophenyl)-6-(hydroxymethyl)-4,5,6,7-tetrahydropyrazolo[1,5-a]pyrimidin-3-yl]-2-(2-methylphenyl)pyridazin-3(2H)-one], Cc1ccccc1-n1nc(-c2c(-c3ccc(F)cc3)nn3c2N[C@H](CO)CC3)ccc1=O [Example 123, 6-[(5S)-2-(4-fluorophenyl)-5-(hydroxymethyl)-4,5,6,7-tetrahydropyrazolo[1,5-a]pyrimidin-3-yl]-2-(2-methylphenyl)pyridazin-3(2H)-one] is lower in inhibition in vivo at 1 mg/kg: 63.6% for the first, 62.3% for the second.

Compared with Cc1ccccc1-n1nc(-c2c(-c3ccc(F)cc3)nn3c2NC(CO)CC3)ccc1=O (stereo in doubt) [Example 124, 6-[(5S)-2-(4-Fluorophenyl)-5-(hydroxymethyl)-4,5,6,7-tetrahydropyrazolo[1,5-a]pyrimidin-3-yl]-2-(2-methylphenyl)pyridazin-3(2H)-one], Cc1ccccc1-n1nc(-c2c(-c3ccc(F)cc3)nn3c2NCC(C)(C)C3)ccc1=O [Example 132, 6-[2-(4-Fluorophenyl)-6,6-dimethyl-4,5,6,7-teterahydropyrazolo[1,5-a]pyrimidin-3-yl]-2-(2-methylphenyl)pyridazin-3(2H)-one] is higher in inhibition in vivo at 1 mg/kg: 50.6% for the first, 60.4% for the second.

First: Cc1ccccc1-n1nc(-c2c(-c3ccc(F)cc3)nn3c2NCC2(CCOCC2)C3)ccc1=O [Example 63, 6-[2′-(4-Fluorophenyl)-2,3,4′,5,5′,6-hexahydrospiro[pyran-4,6′-pyrazolo[1,5-a]pyrimidin]-3′-yl]-2-(2-methylphenyl)pyridazin-3(2H)-one]
Second: Cc1ccccc1-n1nc(-c2c(-c3ccc(F)cc3)nn3c2NCC2(C3)OCCO2)ccc1=O [Example 86, 6-[2′-(4-Fluorophenyl)-4′,5′-dihydrospiro[1,3-dioxolane-2,6′-pyrazolo[1,5-a]pyrimidin]-3′-yl]-2-(2-methylphenyl)pyridazin-3(2H)-one]
The inhibition in vivo at 1 mg/kg of the first is lower: 39.5% for the first, 48.1% for the second.
